Assay results published in US20250230138A1, “COMPOUNDS HAVING A T-STRUCTURE FORMED BY AT LEAST FOUR CYCLES FOR USE IN THE TREATMENT OF CANCER AND OTHER INDICATIONS” (TheRas, Inc., priority 2022, published 2025).
Like-named read-outs stand apart in the source and are kept apart here.

Experiments:
[1] = biological target: Cys242 in human PIK3CA (157-299) (Homo sapiens (Human), UniProt P42336); experiment: Covalent modification assay using MALDI-TOF MS; assay type: biochemical; conditions: 4 h reaction time point
Cys242 in human PIK3CA (157-299), sequence (P42336 157-299): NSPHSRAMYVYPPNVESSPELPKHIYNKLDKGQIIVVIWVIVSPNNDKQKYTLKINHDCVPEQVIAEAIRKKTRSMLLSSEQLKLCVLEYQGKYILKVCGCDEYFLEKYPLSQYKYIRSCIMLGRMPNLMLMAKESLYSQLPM
Procedure, shortened: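 PIK3CA (157-299) at 3.33 μM or 1 μM in 20 mM HEPES, 150 mM NaCl, 2 mM MgCl2, pH 7.3 was incubated with compound (from 10 mM DMSO stocks) in the dark at room temperature for 15 min, 30 min, 2 h or 4 h. Linear-mode MALDI-TOF peak heights gave percent modification.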

pAKT in BT474 cells = experiment: Cell-based pAKT HTRF assay in BT474 cells; conditions: BT474 cells, 4 hr incubation, read-out: pAKT inhibition IC50 in BT474 cells
Procedure, shortened: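 Cells grown in DMEM with 10% FBS were exposed to compounds for 4 hr in 0.25% DMSO, using a 9-point, 3-fold dilution series that starts at 3 μM. Lysates were incubated with d2 and Eu Cryptate antibodies for 4–24 h at room temperature, and HTRF was read at 615 nm emission.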

[2] = 1 μM protein target, 1:5 protein to compound ratio (compounds 853-1279)
[3] = 3.33 μM protein target, 1:7.5 protein to compound ratio (compounds 1-852)

Compound | % of modification [1, 2] | IC50 (pAKT in BT474 cells; Compounds 1000-1279) [nM] | % of modification [1, 3] | IC50 (pAKT in BT474 cells; Compounds 10-999) [nM] | IC50 (pAKT in BT474 cells; Homo sapiens, BT-474, Compounds 10-999) [nM]
C=CC(=O)N1CCc2nc(-c3nc(-c4ccc5c(c4)CNC(=O)C5)c4ccsc4c3-c3c(F)cc(F)cc3OCCOC)sc2C1 [Compound 1070] | A (percent of modification of PIK3CA protein ≥75%) | < 100 |  |  | 
C=CC(=O)N1CCn2nc(-c3nc(-c4ccc(C(=O)NCC5CN(C)C5)cc4)c4ccsc4c3-c3c(F)cc(F)cc3OCCOC)cc2C1C (centres unmarked) [Compound 1190] | A (percent of modification of PIK3CA protein ≥75%) | 100 to 1000 |  |  | 
C=CC(=O)N1CCn2nc(-c3nc(-c4cnn(C)c4)c4ccsc4c3-c3ccc(F)cc3OCC)cc2C1 [Compound 275] |  |  | A (percent of modification of PIK3CA protein ≥75%) | < 100 | 
C=CC(=O)N1CCc2ncc(-c3nc(-c4cnc(C)n4C)c4ccsc4c3-c3c(F)cc(F)cc3OC(C)C)cc2C1 [Compound 412] |  |  | A (percent of modification of PIK3CA protein ≥75%) | < 100 | 
C=CC(=O)N1CCc2nc(-c3nc(-c4ccc(C(C)(C)C#N)cc4)c4ccsc4c3-c3c(F)cc(F)cc3OCCOC)sc2C1 [Compound 439] |  |  | D (percent of modification <25%) | 100 to 1000 | 
C=CC(=O)N1CCc2ncc(-c3nc(-c4ccn(C)c(=O)c4)c4ccsc4c3-c3c(F)cc(F)cc3OCCOC)cc2C1 [Compound 374] |  |  | A (percent of modification of PIK3CA protein ≥75%) | < 100 | 
COCCOc1cc(F)cc(F)c1-c1c(-c2cc3n(n2)CCN(C(=O)CCl)[C@@H]3C)nc(-c2ccc3c(cnn3C)c2)c2ccsc12 [Compound 1225] | A (percent of modification of PIK3CA protein ≥75%) | > 1000 |  |  | 
C=CC(=O)N1CCn2nc(-c3nc(-c4cnnc(C)c4)c4ccsc4c3-c3c(F)cc(F)cc3OC[C@@H](C)O)cc2[C@H]1C [Compound 751] |  |  | A (percent of modification of PIK3CA protein ≥75%) | < 100 | 
C=CC(=O)N1CCn2nc(-c3nc(-c4ccc5c(c4)CNC5=O)c4ccsc4c3-c3c(F)cc(F)cc3OCCOC)cc2[C@@H]1C [Compound 545] |  |  | A (percent of modification of PIK3CA protein ≥75%) | < 100 | 
C=CC(=O)N1Cc2cc(-c3nc(-c4ccc5c(c4)CCN(C)CC5)c4ccsc4c3-c3c(F)cc(F)cc3OCCOC)nn2C[C@H]1C [Compound 841] |  |  | A (percent of modification of PIK3CA protein ≥75%) | < 100 | 
C=CC(=O)N1CCn2nc(-c3nc(-c4ccc5nn(C)cc5c4)c4ccsc4c3-c3c(F)cc(F)cc3OCCO)cc2[C@H]1C [Compound 650] |  |  | C (25%≤percent of modification <50%) | < 100 | 
C=CC(=O)N1CCn2nc(-c3nc(-c4ccc(N5CCN(C)CC5)cc4)c4ccsc4c3-c3c(F)cc(F)cc3OCCOC)cc2C1C (centres unmarked) [Compound 1082] | A (percent of modification of PIK3CA protein ≥75%) | < 100 |  |  | 
C=CC(=O)N1Cc2cc(-c3nc(-c4cnn(CC(C)(C)O)c4)c4ccsc4c3-c3c(F)cc(F)cc3OCCOC)nn2C[C@H]1C [Compound 514] |  |  | A (percent of modification of PIK3CA protein ≥75%) | < 100 | 
C=CC(=O)N1Cc2cc(-c3nc(-c4ccc(C5(N)COC5)cc4)c4ccsc4c3-c3c(F)cc(F)cc3OC(C)C)nn2[C@@H](C)C1 [Compound 511] |  |  | A (percent of modification of PIK3CA protein ≥75%) | < 100 | 
C=CC(=O)N1CCn2nc(-c3nc(-c4cnc(OCCN(C)C)nc4)c4ccsc4c3-c3c(F)cc(F)cc3OCCOC)cc2C1C (centres unmarked) [Compound 1056] | A (percent of modification of PIK3CA protein ≥75%) | < 100 |  |  | 
C=CC(=O)N1CCn2nc(-c3nc(-c4cnn(C)c4)c4c(c3-c3ccc(F)cc3OC)C(F)CC4)cc2C1 (centres unmarked) [Compound 574, 1-(2-(5-fluoro-4-(4-fluoro-2-methoxyphenyl)-1-(1-methyl-1H-pyrazol-4-yl)-6,7-dihydro-5H-cyclopenta[c]pyridin-3-yl)-6,7-dihydropyrazolo[1,5-a]pyrazin-5(4H)-yl)prop-2-en-1-one] |  |  | A (percent of modification of PIK3CA protein ≥75%) |  | < 100
C=CC(=O)N1Cc2cc(-c3nc(-c4cnc(C)nc4)c4ccsc4c3-c3c(F)cc(F)cc3OCCO)nn2C(C)C1 (centres unmarked) [Compound 785] |  |  | A (percent of modification of PIK3CA protein ≥75%) | < 100 | 

Compound | % of modification [1, 2] | IC50 (pAKT in BT474 cells; Compounds 1000-1279) [nM] | % of modification [1, 3] | IC50 (pAKT in BT474 cells; Compounds 10-999) [nM] | IC50 (pAKT in BT474 cells; Homo sapiens, BT-474, Compounds 10-999) [nM]
C=CC(=O)N1CC[C@H](n2cc(-c3nc(-c4ccnc(N)c4)c4ccsc4c3-c3ccc(F)cc3OCC3CCNC(=O)C3)ccc2=O)C1 (some centres unmarked) [Compound 241] |  |  | A (percent of modification of PIK3CA protein ≥75%) | 100 to 1000 | 
C=CC(=O)N1CCc2nc(-c3nc(-c4ccc(=O)n(C(F)F)c4)c4ccsc4c3-c3c(F)cc(F)cc3OC(C)C)sc2C1 [Compound 347] |  |  | A (percent of modification of PIK3CA protein ≥75%) | 100 to 1000 | 
C=CC(=O)N1CCn2nc(-c3nc(N4CCN(C(C)C)CC4)c4ccsc4c3-c3ccc(F)cc3OCCOC)cc2C1 [Compound 209] |  |  | A (percent of modification of PIK3CA protein ≥75%) | < 100 | 
C=CC(=O)N1CCc2nc(-c3nc(-c4ccc5c(c4)C(N)CC5)c4ccsc4c3-c3ccc(F)cc3OCCOC)sc2C1 (centres unmarked) [Compound 162] |  |  | A (percent of modification of PIK3CA protein ≥75%) | < 100 | 
C=C(F)C(=O)N1CCn2nc(-c3nc(-c4ccc5c(c4)CCN(C)C5)c4ccsc4c3-c3ccc(F)cc3OC(C)C)nc2C1 [Compound 255] |  |  | A (percent of modification of PIK3CA protein ≥75%) | 100 to 1000 | 
C=CC(=O)N1CCn2nc(-c3nc(N4CCC5(CC4)COC5)c4ccsc4c3-c3ccc(F)cc3OC(C)C)cc2C1 [Compound 207] |  |  | A (percent of modification of PIK3CA protein ≥75%) | < 100 | 
C=CC(=O)N1C[C@H](C)n2nc(-c3nc(-c4ccc5ncn(C)c5c4)c4ccsc4c3-c3c(F)cc(F)cc3OCCOC)cc2[C@H]1C [Compound 604] |  |  | A (percent of modification of PIK3CA protein ≥75%) | < 100 | 
C=CC(=O)N1Cc2cc(-c3nc(-c4ccn(C)n4)c4ccsc4c3-c3c(F)cc(F)cc3OCCOC)nn2C[C@H]1C [Compound 722] |  |  | A (percent of modification of PIK3CA protein ≥75%) | < 100 | 
C=CC(=O)N1CCc2nc(-c3nc(-c4ccn(C(C)C)c(=O)c4)c4ccsc4c3-c3ccc(F)cc3OCCOC)sc2C1 [Compound 139] |  |  | A (percent of modification of PIK3CA protein ≥75%) | 100 to 1000 | 
C=CC(=O)N1CCc2sc(-c3nc(-c4ccc5c(c4)CCNC5)c4ccsc4c3-c3ccc(F)cc3OCCOC)nc2C1 [Compound 146] |  |  | A (percent of modification of PIK3CA protein ≥75%) | < 100 | 
C=CC(=O)N1CCc2nc(-c3nc(-c4ccc(=O)n(C)c4)c4ccsc4c3-c3c(F)cc(F)cc3OC(C)C)sc2C1 [Compound 348] |  |  | A (percent of modification of PIK3CA protein ≥75%) | < 100 | 
C=CC(=O)N1CCc2ncc(-c3nc(-c4ccc5nn(C)cc5c4)c4ccsc4c3-c3c(F)cc(F)cc3OCCOC)cc2C1 [Compound 400] |  |  | A (percent of modification of PIK3CA protein ≥75%) | < 100 | 
C=CC(=O)N1CCn2nc(-c3nc(-c4cnc5c(c4)CN(C)C5=O)c4ccsc4c3-c3c(F)cc(F)cc3OCCO)cc2C1C (centres unmarked) [Compound 924] | A (percent of modification of PIK3CA protein ≥75%) |  |  | < 100 | 
C=CC(=O)N1CCc2ccc(-c3nc(-c4ccc5c(c4)CNC(=O)C5)c4ccsc4c3-c3c(F)cc(F)cc3OCCOC)cc2C1 [Compound 1108] | A (percent of modification of PIK3CA protein ≥75%) | < 100 |  |  | 
C=CC(=O)N1CCc2nc(-c3nc(-c4ccc5c(c4)CNC5=O)c4ccsc4c3-c3c(F)cc(F)cc3OCCOC)sc2C1 [Compound 364] |  |  | A (percent of modification of PIK3CA protein ≥75%) | < 100 | 
C=CC(=O)N1Cc2cc(-c3nc(-c4cc5n(n4)CCNC5=O)c4ccsc4c3-c3c(F)cc(F)cc3OCCOC)nn2C[C@H]1C [Compound 685] |  |  | A (percent of modification of PIK3CA protein ≥75%) | < 100 | 
C=CC(=O)N1CCn2nc(-c3nc(-c4ccc5c(cnn5C)c4)c4ccsc4c3-c3c(F)cc(F)cc3OCCO)cc2[C@H]1C [Compound 652] |  |  | C (25%≤percent of modification <50%) | < 100 | 
